US8048869B2, “Pharmaceutical composition for use in hormone replacement therapy” (Pantarhei Bioscience B.V., priority 2001, dated 2011)

What was measured:
[1] = biological target: T1, human sex Hormone Binding Globulin (SHBG) (Homo sapiens, UniProt P04278); test: Competitive steroid-binding assay, SHBG; conditions: [3H]DHT or [3H]estradiol as labeled ligands (FIG. 6)
T1 construct: Human SHBG was purified from transgenic mouse serum, as described previously; from tissue; host or cells: serum of mice transgenic for human SHBG
T1 sequence (P04278 30-402): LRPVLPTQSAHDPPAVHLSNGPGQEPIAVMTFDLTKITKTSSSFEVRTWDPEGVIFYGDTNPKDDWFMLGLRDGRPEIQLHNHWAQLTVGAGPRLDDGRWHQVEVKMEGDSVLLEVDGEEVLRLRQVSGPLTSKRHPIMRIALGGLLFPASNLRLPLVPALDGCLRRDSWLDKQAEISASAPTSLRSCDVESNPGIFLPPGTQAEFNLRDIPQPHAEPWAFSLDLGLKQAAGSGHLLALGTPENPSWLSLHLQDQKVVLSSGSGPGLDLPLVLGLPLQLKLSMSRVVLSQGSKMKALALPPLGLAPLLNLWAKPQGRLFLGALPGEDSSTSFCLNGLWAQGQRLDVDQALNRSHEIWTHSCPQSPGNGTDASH
Experimental: Human SHBG was treated for 30 min at room temperature with a dextran-coated charcoal (DCC) suspension in phosphate buffered saline (PBS) to remove any steroid ligand. After centrifugation (2,000×g for 10 min) to sediment the DCC, the supernatant containing the human SHBG was diluted in PBS to a concentration of 1 nM based on its steroid binding capacity.
After incubation for 1 h at room temperature the. reaction mixtures were placed in an ice bath for a further 15 muin. […] The average amounts of [^3H]labeled ligands bound to SHBG at each concentration of competitor (B) were expressed as a percentage of the average amounts of [^3H]labeled ligands bound to SHBG in the absence of competitor (B0), and were plotted against the concentration of competitor in each assay tube.

OVX-rats [2] = test: Indentation test of distal femur (bone biomechanical strength), OVX rat; assay type: in vivo; conditions: po, 0.1 mg/kg/day, 4 weeks, distal femur
Experimental: (§1) The ovariectomized aged rat was used as a model for the human disease osteoporosis. This is an established animal model, recommended by the United States Food and Drug Administration (FDA), to evaluate and assess potential agents for osteoporosis prevention and therapy. The anti-resorptive efficacy of estetrol (E4) was tested by ex vivo measuring total and trabecular bone mineral density and bone strength after 4 weeks of treatment at necropsy. 17α-ethinyl-estradiol (EE) and vehicle (1% ethanol/arachidis oil) served as controls in this bioassay.
(§2) Three months old female Sprague-Dawley rats were either sham-operated (Sham) or ovariectomized (OVX) one day prior to commencement of the dosing study. Animals were anesthetized using a ketamine/xylazine anesthetic mixture and underwent a bilateral ovariectomy or were sham-treated. A section of hair on the dorsal surface was shaved and an incision made overlying the lumbar region of the spine. The skin was separated from the underlying fascia so that a second incision could be made through the abdominal musculature approximately caudal to the kidneys. The ovaries were then exteriorized and removed and the musculature was closed with a single suture. The skin incision was closed using surgical staples.
(§3) Ten animals per treatment group were orally dosed once per day for four consecutive weeks. The dosing commenced 1 day after surgical removal of the ovaries and was administered by oral gavage using a syringe and stainless steel gavage needle at doses of 0.1 mg/kg /day EE, or either 2.5, 0.5 or 0.1 mg/kg/day E4. Vehicle control was daily administered to one group of OVX-animals and sham-operated rats. After treatment, anesthetized rats were subjected to cardiac puncture and asphyxiated by CO2 inhalation. Tibiae and femura were removed, cleaned of soft-tissue and fixed and stored in 70% ethanol/saline at 4° C. (tibia) or saline at 4° C. (femura) until fuirther analysis.
Ex vivo evaluation of bone biomechanical strength was performed with an indentation test at the distal femura. Prior to mechanical testing femura were rinsed in cold saline and carefully cleaned of any remaining adherent soft tissue. A 3-mm segment of the distal femoral metaphysis was cut directly proximal to the femoral condyle with a low-speed diamond saw under constant saline irrigation. The load was applied with a cylindrical indenter (with a flat testing face of 1.6 mm diameter) to the center of marrow cavity on the distal face of the segment. The indenter was allowed to penetrate the cavity at a constant displacement of 6 mm/min to a depth of 2 mm before load reversal.
The maximum load, stiffness and energy absorbed were determined from load displacement curves. Ultimate strength was calculated by dividing the maximum load by the indenter area. Furthermore, mean ultimate strength values are depicted in FIG. 2. […] Reductions in maximum load, stiffness, energy and ultimate strength were −68%, −68%, −27% and −68%, respectively, clearly accompanying the bone mineral density loss in estrogen deficient rats.

OVX-rats [3] = test: pQCT densitometry of proximal tibiae, ovariectomized aged rat osteoporosis model; assay type: in vivo; conditions: po, 0.1 mg/kg/day, 4 weeks, proximal tibiae
Experimental: as §1, §2
as §3, with “The dosing commenced 1 day after surgical removal of the ovaries and was administered by oral gavage using a syringe and stainless steel gavage needle at doses of 0.1 mg/kg /day EE, or either 2.5, 0.5 or 0.1 mg/kg/day E4.” left out
Ex vivo peripheral Quantitative Computed Tomography (pQCT) was performed on the excised left tibiae using a Stratec XCT-RM and associated software (Stratec Medizintechnik GmbH, Pforzheim; Germany, software version 5.40). The scans were performed at 12% of the total length from the proximal end of the tibiae. The positions were verified using scout views and one 0.5-mm slice perpendicular to the long axis of the tibial shaft was acquired from each site. The scans were analyzed using a threshold for delineation of the external boundary. The total and trabecular bone mineral content, area and density at each site were determined. Furthermore, pQCT data for mean total bone mineral density are depicted in FIG. 1.

Structure (SMILES)	relative binding affinity for human SHBG [1]	Energy (OVX-rats [2]) [mJ]	Maximum load (OVX-rats [2]) [N]	Stiffness (OVX-rats [2]) [N/mm]	Ultimate strength (OVX-rats [2]) [N/mm2]	Mean Total Bone Mineral Area (OVX-rats [3]) [mm^2]	Mean Total Bone Mineral Content (OVX-rats [3]) [mg/mm]	Mean Total Bone Mineral Density (OVX-rats [3]) [mg/mL]	Mean Trabecular Bone Mineral Area (OVX-rats [3]) [mm^2]	Mean Trabecular Bone Mineral Content (OVX-rats [3]) [mg/mm]	Mean Trabecular Bone Mineral Density (OVX-rats [3]) [mg/mL]
C[C@]12CCC(=O)C[C@@H]1CC[C@@H]1[C@@H]2CC[C@]2(C)[C@@H](O)CC[C@@H]12 [5α-dihydrotestosterone]	in this order, show an increased relative binding affinity	–	–	–	–	–	–	–	–	–	–
C#C[C@]1(O)CC[C@H]2[C@@H]3CCc4cc(O)ccc4[C@H]3CC[C@@]21C [EE, 17α-ethinyl estradiol, reference compound]	–	0.53	9.05	169.12	4.80	13.87	9.66	697.48	6.24	1.81	290.16
C[C@]12CC[C@H]3[C@@H](CCC4=CC(=O)CC[C@@]43C)[C@@H]1CC[C@@H]2O [testosterone]	in this order, show an increased relative binding affinity	–	–	–	–	–	–	–	–	–	–
